The target of this assay is T1, PI3K alpha (Homo sapiens, UniProt P42336).
T1 construct: purchased Millipore Upstate
T1 sequence (P42336 whole entry): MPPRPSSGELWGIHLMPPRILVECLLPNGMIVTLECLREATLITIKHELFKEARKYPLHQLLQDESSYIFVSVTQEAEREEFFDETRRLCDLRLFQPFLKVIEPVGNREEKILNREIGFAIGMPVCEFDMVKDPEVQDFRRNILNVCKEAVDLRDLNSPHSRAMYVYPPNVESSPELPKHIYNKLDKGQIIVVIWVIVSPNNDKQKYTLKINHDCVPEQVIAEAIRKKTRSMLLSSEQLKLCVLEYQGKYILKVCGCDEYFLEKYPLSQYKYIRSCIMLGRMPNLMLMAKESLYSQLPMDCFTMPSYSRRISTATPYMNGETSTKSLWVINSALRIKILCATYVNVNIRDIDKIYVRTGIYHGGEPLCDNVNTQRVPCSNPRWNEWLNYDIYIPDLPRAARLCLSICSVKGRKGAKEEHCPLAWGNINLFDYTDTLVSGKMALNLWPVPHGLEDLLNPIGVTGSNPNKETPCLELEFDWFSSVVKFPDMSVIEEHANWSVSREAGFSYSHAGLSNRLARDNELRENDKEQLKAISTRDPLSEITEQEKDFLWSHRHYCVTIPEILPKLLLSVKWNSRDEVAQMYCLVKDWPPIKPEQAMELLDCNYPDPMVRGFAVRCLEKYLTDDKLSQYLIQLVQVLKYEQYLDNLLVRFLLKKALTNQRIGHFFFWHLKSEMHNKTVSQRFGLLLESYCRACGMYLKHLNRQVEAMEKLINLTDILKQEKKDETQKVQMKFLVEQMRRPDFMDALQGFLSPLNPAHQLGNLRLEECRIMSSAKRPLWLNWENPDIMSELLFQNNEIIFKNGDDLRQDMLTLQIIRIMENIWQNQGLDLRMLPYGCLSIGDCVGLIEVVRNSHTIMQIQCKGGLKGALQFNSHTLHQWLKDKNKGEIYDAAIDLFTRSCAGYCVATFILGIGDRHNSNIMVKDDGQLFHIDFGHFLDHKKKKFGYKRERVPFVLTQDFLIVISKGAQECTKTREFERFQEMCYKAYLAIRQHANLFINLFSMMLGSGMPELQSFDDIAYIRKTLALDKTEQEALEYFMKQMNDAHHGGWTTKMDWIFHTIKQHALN
T1 sequence (P27986 whole entry partner): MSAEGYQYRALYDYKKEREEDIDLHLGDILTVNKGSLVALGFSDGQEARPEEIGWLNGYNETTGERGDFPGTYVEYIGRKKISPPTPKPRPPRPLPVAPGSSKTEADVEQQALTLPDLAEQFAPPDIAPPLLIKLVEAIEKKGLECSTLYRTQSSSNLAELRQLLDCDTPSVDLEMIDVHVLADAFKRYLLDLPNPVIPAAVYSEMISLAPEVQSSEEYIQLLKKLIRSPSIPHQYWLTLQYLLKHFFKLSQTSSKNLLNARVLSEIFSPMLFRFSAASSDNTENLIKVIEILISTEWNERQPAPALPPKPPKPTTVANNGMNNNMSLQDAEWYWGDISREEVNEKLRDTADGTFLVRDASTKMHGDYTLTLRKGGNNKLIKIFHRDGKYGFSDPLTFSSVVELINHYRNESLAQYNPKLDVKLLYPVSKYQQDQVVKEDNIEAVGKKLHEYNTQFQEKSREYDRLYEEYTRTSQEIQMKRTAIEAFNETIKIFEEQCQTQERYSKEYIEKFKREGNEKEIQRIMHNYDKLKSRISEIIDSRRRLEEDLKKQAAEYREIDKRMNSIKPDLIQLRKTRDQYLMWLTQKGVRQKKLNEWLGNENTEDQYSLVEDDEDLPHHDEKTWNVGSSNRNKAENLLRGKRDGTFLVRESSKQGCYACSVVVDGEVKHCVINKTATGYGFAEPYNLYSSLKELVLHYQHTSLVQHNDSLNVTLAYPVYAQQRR
Description: P110 Alpha TR-FRET Assay (PI3K alpha kinase assay, HTRF Transcreener ADP Assay). The class given is biochemical. The note with it: PI3K (WT). On the procedure: PI3K alpha kinase assay may be done using HTRF Transcreener ADP Assay (Cisbio).
Composition of the reaction buffer was as follows 50 mM HEPES, pH 7.5, 5 mM MgCl2, 1 mM DTT, 30 μM Na3VO4. PI3 Kinase was procured from Millipore Upstate. […] ATP was used at final concentration of 10 μM. Corning 384 well white plates were used for the assay.
2 μl of diluted enzyme (50 ng), 3 μl of diluted compound and 5 μl of buffer were added, mixed then incubated for 20 minutes with shaking at 400 rpm. 3 μl of substrate (10 μM of ATP and 5 μM PIP2) were added to initiate the reaction. The samples were incubated for 20 min. At the end of the reaction time 10 μl of the Detection mix (5 μl of ADP-D2 and 5 μl of Anti-ADP-Cryptate) was added and the contents were incubated for 1 h. The reaction plate was directly read in an Envision Multilabel Plate Reader.
On the technique in general: TR-FRET usually uses a lanthanide donor and a delayed reading to cut background.
Usually IC50 stands for the concentration at which inhibition is half-maximal. A higher IC50 goes with weaker potency. “2-8-[4-1,6-5-bis(morpholin-4-yl)-1,3,5-triazin-2-yl]-2H-indazole [Compound 1112]” had an IC50 below 5 µM.
Take `CN(C)C(=O)c1ccc(Oc2nc(-c3cnc(N)s3)nc(N3C4CCC3COC4)n2)cc1` [Compound 1001, 4-8-{[4-1-(2-11-amino-1,3-thiazol-5-yl)-6-5-{3-oxa-8-azabicyclo[3.2.1]octan-8-yl}-1,3,5-triazin-2-yl]oxy}-N,N-dimethylbenzamide]: the IC50 was below 5 µM.
With `CN(C)C(=O)c1ccc(Oc2nc(-c3cnc(N)s3)nc(N3CCCOCC3)n2)cc1` [Compound 1002, 4-9-{[4-1-(2-17-amino-1,3-thiazol-5-yl)-6-5-(1,4-oxazepan-4-yl)-1,3,5-triazin-2-yl]oxy}-N,N-dimethylbenzamide] the figure was below 5 µM.
With `C[C@H]1COCCN1c1nc(Oc2ccc(C(=O)N(C)C)cc2)nc(-c2cnc(N)s2)n1` [Compound 1003, 4-9-{[4-1-(2-22-amino-1,3-thiazol-5-yl)-6-5-(3-25-methylmorpholin-4-yl)-1,3,5-triazin-2-yl]oxy}-N,N-dimethylbenzamide] the figure was below 5 µM; with `CN(C)C(=O)c1ccc(Oc2nc(-c3cnc(N)s3)nc(N3CCOCC3)n2)cc1` [Compound 1004, 4-14-{[4-1-(2-27-amino-1,3-thiazol-5-yl)-6-5-(morpholin-4-yl)-1,3,5-triazin-2-yl]oxy}-N,N-dimethylbenzamide], below 5 µM; with `CS(=O)(=O)N1CCC(COc2nc(-c3cnc(N)nc3)nc(N3CCOCC3)n2)CC1` [Compound 1005, 5-(4-((1-(methylsulfonyl)piperidin-4-yl)methoxy)-6-morpholino-1,3,5-triazin-2-yl)pyrimidin-2-amine], below 5 µM.
As for `CN(C)C(=O)Cc1ccc(Oc2nc(-c3cnc(N)nc3)nc(N3CCOCC3)n2)cc1` [Compound 1006, 2-26-(4-20-{[4-3-(2-15-aminopyrimidin-5-yl)-6-5-(morpholin-4-yl)-1,3,5-triazin-2-yl]oxy}phenyl)-N,N-dimethylacetamide], the half-maximal inhibitory concentration (IC50) is below 5 µM.
In the case of `Nc1ncc(-c2nc(Nc3nccs3)nc(N3CCOCC3)n2)s1` [Compound 1007, N-(4-(2-aminothiazol-5-yl)-6-morpholino-1,3,5-triazin-2-yl)thiazol-2-amine], the IC50 was below 5 µM.
Compound `CN(C)C(=O)N1CCC(Oc2nc(-c3cnc(N)nc3)nc(N3CCOCC3)n2)CC1` [Compound 1008, 4-14-{[4-1-(2-17-aminopyrimidin-5-yl)-6-5-(morpholin-4-yl)-1,3,5-triazin-2-yl]oxy}-N,N-dimethylpiperidine-1-carboxamide] displayed an IC50 below 5 µM.
`CN(C)C(=O)c1ccc(Oc2nc(-c3cnc(N)cn3)nc(N3CCOCC3)n2)cc1` [Compound 1009, 4-14-{[4-1-(5-17-aminopyrazin-2-yl)-6-5-(morpholin-4-yl)-1,3,5-triazin-2-yl]oxy}-N,N-dimethylbenzamide] displayed a half-inhibitory concentration (IC50) below 5 µM.
With `Nc1ccc(-c2nc(Oc3ccc4c(c3)CCC(=O)N4)nc(N3CCOCC3)n2)cn1` [Compound 1010, 6-20-{[4-1-(6-11-ammopyridin-3-yl)-6-5-(morpholin-4-yl)-1,3,5-triazin-2-yl]oxy}-1,2,3,4-tetrahydroquinolin-2-one] the figure was below 5 µM.
With `CN(C)C(=O)c1ccc(Oc2nc(-c3cnc(N)nc3)nc(N3CCOCC3)n2)cc1` [Compound 1011, 4-14-{[4-1-(2-27-aminopyrimidin-5-yl)-6-5-(morpholin-4-yl)-1,3,5-triazin-2-yl]oxy}-N,N-dimethylbenzamide] the figure was below 5 µM; with `CN(C)C(=O)c1ccc(Oc2nc(-c3ccc(N)nc3)nc(N3C4CCC3COC4)n2)cc1` [Compound 1012, 4-9-{[4-1-(6-12-aminopyridin-3-yl)-6-5-{3-oxa-8-azabicyclo[3.2.1]octan-8-yl}-1,3,5-triazin-2-yl]oxy}-N,N-dimethylbenzamide], below 5 µM; with `CN(C)C(=O)Cc1cccc(Oc2nc(-c3ccc(N)nc3)nc(N3CCOCC3)n2)c1` [Compound 1013, 2-26-(3-20-{[4-1-(6-11-aminopyridin-3-yl)-6-5-(morpholin-4-yl)-1,3,5-triazin-2-yl]oxy}phenyl)-N,N-dimethylacetamide], below 5 µM.
In turn, `CN(C)C(=O)c1ccc(Oc2nc(-c3ccc(N)nc3)nc(N3CCCOCC3)n2)cc1` [Compound 1014, 4-21-{[4-1-(6-9-aminopyridin-3-yl)-6-5-(1,4-oxazepan-4-yl)-1,3,5-triazin-2-yl]oxy}-N,N-dimethylbenzamide] registered an IC50 below 5 µM.
`CN(C)C(=O)c1cccc(Oc2nc(-c3ccc(N)nc3)nc(N3CCOCC3)n2)c1` [Compound 1015, 3-20-{[4-1-(6-11-aminopyridin-3-yl)-6-5-(morpholin-4-yl)-1,3,5-triazin-2-yl]oxy}-N,N-dimethylbenzamide]: the IC50 is below 5 µM.
With `CN(C)C(=O)c1ccc(Oc2nc(-c3cccc4[nH]ncc34)nc(-n3ccnc3)n2)cc1` [Compound 1016, 4-9-{[4-5-(1H-imidazol-1-yl)-6-1-(1H-indazol-4-yl)-1,3,5-triazin-2-yl]oxy}-N,N-dimethylbenzamide] the figure was below 5 µM; with `CN(C)C(=O)Cc1ccc(Oc2nc(-c3ccc(N)nc3)nc(N3CCOCC3)n2)cc1` [Compound 1017, 2-20-(4-9-{[4-1-(6-12-aminopyridin-3-yl)-6-5-(morpholin-4-yl)-1,3,5-triazin-2-yl]oxy}phenyl)-N,N-dimethylacetamide], below 5 µM.
On to `Cc1cc(-c2nc(Oc3ccc(C(=O)N(C)C)cc3)nc(N3CCOCC3)n2)cnc1N` [Compound 1018, 4-14-{[4-1-(6-27-amino-5-26-methylpyridin-3-yl)-6-5-(morpholin-4-yl)-1,3,5-triazin-2-yl]oxy}-N,N-dimethylbenzamide], for which the IC50 is below 5 µM.
In turn, `CN(C)C(=O)c1ccc(Oc2nc(-c3ccc(NN)nc3)nc(N3CCOCC3)n2)cc1` [Compound 1019, 4-14-{[4-1-(6-26-hydrazinylpyridin-3-yl)-6-5-(morpholin-4-yl)-1,3,5-triazin-2-yl]oxy}-N,N-dimethylbenzamide] yielded an IC50 below 5 µM.
On to `Cc1nc(N)ccc1-c1nc(Oc2ccc(C(=O)N(C)C)cc2)nc(N2CCOCC2)n1` [Compound 1020, 4-14-{[4-1-(6-17-amino-2-19-methylpyridin-3-yl)-6-5-(morpholin-4-yl)-1,3,5-triazin-2-yl]oxy}-N,N-dimethylbenzamide], for which the IC50 is below 5 µM.
On to `Cc1cc(Oc2nc(-c3ccc(N)nc3)nc(N3CCOCC3)n2)ccc1C(=O)N(C)C` [Compound 1021, 4-20-{[4-1-(6-16-aminopyridin-3-yl)-6-5-(morpholin-4-yl)-1,3,5-triazin-2-yl]oxy}-N,N,2-trimethylbenzamide], for which the IC50 is below 5 µM.
With `Cc1cc(N)ncc1-c1nc(Oc2ccc(C(=O)N(C)C)cc2)nc(N2CCOCC2)n1` [Compound 1022, 4-14-{[4-1-(6-17-amino-4-15-methylpyridin-3-yl)-6-5-(morpholin-4-yl)-1,3,5-triazin-2-yl]ioxy}-N,N-dimethylbenzamide] the figure was above 5 µM; with `CS(=O)(=O)N1CCC(COc2nc(-c3ccc(N)nc3)nc(N3CCOCC3)n2)CC1` [Compound 1023, 5-(4-((1-(methylsulfonyl)piperidin-4-yl)methoxy)-6-morpholino-1,3,5-triazin-2-yl)pyridin-2-amine], below 5 µM.
As to `CN(C)C(=O)c1ccc(Oc2nc(-c3ccncc3)nc(-c3cccc4[nH]ncc34)n2)cc1` [Compound 1024, 4-9-{[4-1-(1H-indazol-4-yl)-6-5-(pyridin-4-yl)-1,3,5-triazin-2-yl]oxy}-N,N-dimethylbenzamide], the concentration for half-maximal inhibition (IC50) is above 5 µM.
Take `CN(C)C(=O)N1CC[C@H](COc2nc(-c3ccc(N)nc3)nc(N3CCOCC3)n2)C1` [Compound 1025, 3-21-({[4-3-(6-16-aminopyridin-3-yl)-6-5-(morpholin-4-yl)-1,3,5-triazin-2-yl]oxy}methyl)-N,N-dimethylpyrrolidine-1-carboxamide]: the IC50 was below 5 µM.
`CN(C)C(=O)N1CC[C@H](Oc2nc(-c3ccc(N)nc3)nc(N3CCOCC3)n2)C1` [Compound 1026, 3-19-{[4-3-(6-16-aminopyridin-3-yl)-6-5-(morpholin-4-yl)-1,3,5-triazin-2-yl]oxy}-N,N-dimethylpyrrolidine-1-carboxamide] had an IC50 below 5 µM.
With `CN(C)C(=O)c1ccc(Oc2nc(-c3ccc(N)nc3)nc(N3CCOCC3)n2)cc1` [Compound 1027, 4-14-{[4-1-(6-17-aminopyridin-3-yl)-6-5-(morpholin-4-yl)-1,3,5-triazin-2-yl]oxy}-N,N-dimethylbenzamide] the figure was below 5 µM.
With `CN(C)C(=O)N1CCC(Oc2nc(-c3ccc(N)nc3)nc(N3CCOCC3)n2)CC1` [Compound 1028, 4-20-{[4-1-(6-11-aminopyridin-3-yl)-6-5-(morpholin-4-yl)-1,3,5-triazin-2-yl]oxy}-N,N-dimethylpiperidine-1-carboxamide] the figure was below 5 µM; with `CN(C)C(=O)c1ccc(Oc2nc(-c3ccc(F)nc3)nc(N3CCOCC3)n2)cc1` [Compound 1029, 4-14-{[4-1-(6-17-fluoropyridin-3-yl)-6-5-(morpholin-4-yl)-1,3,5-triazin-2-yl]oxy}-N,N-dimethylbenzamide], below 5 µM; with `CN(C)C(=O)c1ccc(Oc2nc(-c3cccc(O)c3)nc(N3CCOCC3)n2)cc1` [Compound 1030, 4-14-{[4-1-(3-21-hydroxyphenyl)-6-5-(morpholin-4-yl)-1,3,5-triazin-2-yl]oxy}-N,N-dimethylbenzamide], below 5 µM.

Source of the values: patent publication US9481670B2, “Triazine compounds” (Sphaera Pharma PTE. Ltd., priority 2011, dated 2016).
